From ChEMBL document CHEMBL1833796, “Locating the binding sites of anticancer tamoxifen and its metabolites 4-hydroxytamoxifen and endoxifen on bovine serum albumin” (Eur J Med Chem, 2011)

Tests used:
Assay type in all cases: ADME
Albumin [1] = molecular target: T1, Albumin (Bos taurus, UniProt P02769); experiment: Effect on secondary structure of bovine serum albumin assessed as alpha-helix content at 0.5 uM at pH 7.4 by circular dichroism method (reference value: 63 %); settings: cattle, pH 7.4, 0.5 µM
Albumin [2] = molecular target: T1, Albumin; experiment: Effect on secondary structure of bovine serum albumin assessed as beta-sheet content at 0.5 uM at pH 7.4 by circular dichroism method (reference value: 16 %); settings: cattle, pH 7.4, 0.5 µM
Albumin [3] = molecular target: T1, Albumin; experiment: Effect on secondary structure of bovine serum albumin assessed as beta antiparallel content at 0.5 uM at pH 7.4 by circular dichroism method (reference value: 3 %); settings: cattle, pH 7.4, 0.5 µM
Albumin [4] = molecular target: T1, Albumin; experiment: Effect on secondary structure of bovine serum albumin assessed as turn structure content at 0.5 uM at pH 7.4 by circular dichroism method (reference value: 12 %); settings: cattle, pH 7.4, 0.5 µM
Albumin [5] = molecular target: T1, Albumin; experiment: Binding affinity to bovine serum albumin at pH 7.4 by Stern-Volmer plot; settings: cattle, isolated protein
Albumin [6] = molecular target: T1, Albumin; experiment: Binding affinity to bovine serum albumin at pH 7.4 by fluorescence spectroscopy; settings: cattle, isolated protein
Albumin [7] = molecular target: T1, Albumin; experiment: Effect on secondary structure of bovine serum albumin assessed as random coil content at 0.5 uM at pH 7.4 by circular dichroism method (reference value: 6 %); settings: cattle, pH 7.4, 0.5 µM
Albumin [8] = molecular target: T1, Albumin; experiment: Binding affinity to bovine serum albumin at pH 7.4 by McGhee and von Hippel method; settings: cattle, isolated protein
Albumin [9] = molecular target: T1, Albumin; experiment: Binding affinity to bovine serum albumin at 1 to 100 uM at pH 7.4 by fluorescence spectroscopy; settings: cattle, isolated protein, pH 7.4, 100 µM

T1 sequence (P02769 whole entry): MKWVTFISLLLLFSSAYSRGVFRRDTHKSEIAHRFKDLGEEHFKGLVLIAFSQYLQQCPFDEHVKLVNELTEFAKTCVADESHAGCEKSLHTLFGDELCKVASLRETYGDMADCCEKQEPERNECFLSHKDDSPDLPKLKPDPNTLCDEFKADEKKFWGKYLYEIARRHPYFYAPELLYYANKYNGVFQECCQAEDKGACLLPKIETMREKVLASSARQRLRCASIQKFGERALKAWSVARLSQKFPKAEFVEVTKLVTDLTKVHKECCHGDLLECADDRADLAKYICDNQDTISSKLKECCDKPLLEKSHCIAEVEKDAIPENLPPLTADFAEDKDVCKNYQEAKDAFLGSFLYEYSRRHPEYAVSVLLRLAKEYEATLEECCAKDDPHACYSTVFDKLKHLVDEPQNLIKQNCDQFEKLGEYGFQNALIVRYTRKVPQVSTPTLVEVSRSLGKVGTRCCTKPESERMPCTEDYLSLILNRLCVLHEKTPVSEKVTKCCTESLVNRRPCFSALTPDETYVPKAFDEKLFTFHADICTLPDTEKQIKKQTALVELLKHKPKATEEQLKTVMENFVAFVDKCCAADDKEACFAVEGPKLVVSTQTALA

Activity (Albumin [1]) [%] | Activity (Albumin [2]) [%] | Activity (Albumin [3]) [%] | Activity (Albumin [4]) [%] | K (Albumin [5]) [×10⁴ /M] | K (Albumin [6]) | Activity (Albumin [7]) [%] | K (Albumin [8]) [×10⁴ /M] | Activity (Albumin [9]) [%] | Structure (SMILES)
47 | 14 | 3 | 21 | 0.8 | 8.01 ×10³ /M | 15 | 1.1 | – | CC/C(=C(\c1ccc(O)cc1)c1ccc(OCCNC)cc1)c1ccccc1 [ENDOXIFEN]
41 | 26 | 3 | 20 | 1.96 | 1.96 ×10⁴ /M | 10 | 1.65 | 98 | CC/C(=C(\c1ccccc1)c1ccc(OCCN(C)C)cc1)c1ccccc1 [TAMOXIFEN]

Structure (SMILES) | Activity (Albumin [1]) [%] | Activity (Albumin [2]) [%] | Activity (Albumin [3]) [%] | Activity (Albumin [4]) [%] | K (Albumin [5]) [×10⁴ /M] | K (Albumin [6]) | Activity (Albumin [7]) [%] | K (Albumin [8]) [×10⁴ /M] | Activity (Albumin [9]) [%]
CCC(=C(c1ccc(O)cc1)c1ccc(OCCN(C)C)cc1)c1ccccc1 | 39 | 17 | 3 | 21 | 1.8 | 1.8 ×10⁴ /M | 20 | 1.5 | –
